According to US10363239B2, “Method for inhibiting growth of cancer cells” (Pain Therapeutics, Inc., priority 2013, dated 2019):
Read-outs that look alike come from different tables or passages of the source.

Columns and labels:
mu opiate receptor (MOR) = experiment: MOR agonist activity using [35S]GTPγS binding assay in striatal membranes; assay type: biochemical; conditions: for MOR agonist activity ([35S]GTPγS binding), FLNA-Binding Compound as Agonist 1 μM + BFNA: 1 μM compound + 1 μM β-funaltrexamine
Method in brief: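 Striatal membranes (200 μg) were preincubated 5 min at 30 °C in HEPES pH 7.5 with 100 mM NaCl, 1 mM MgCl2 and 0.5 nM [35S]GTPγS, then 5 min more with 0.1–10 μM compound. Gαo was immunoprecipitated and bound radioactivity counted by scintillation.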

[1] = target: FLNA pentapeptide of SEQ ID NO: 1 (Bn-VAKGL) (Homo sapiens, UniProt P21333); experiment: FITC-NLX-based FLNA screening assay (inhibition of FITC-naloxone binding to Bn-VAKGL on streptavidin plates); conditions: 10 nM FITC-NLX
[2] = Series C-2, 0.1 μM compound, relative to DAMGO
[3] = Series C-2, 0.1 μM compound, [35S]GTPγS binding to Gαo, striatal membranes
[4] = Series C-2, 1 μM compound + 1 μM β-FNA
[5] = Series C-2, 1 μM compound + β-FNA, relative to DAMGO + BFNA
[6] = Series C-2, 1 μM compound, relative to DAMGO
[7] = Series C-2, 1 μM compound, [35S]GTPγS binding to Gαo, striatal membranes
[8] = read-out: Percent Binding Inhibition, FLNA-binding compound 0.01 μM
[9] = read-out: Percent Binding Inhibition, FLNA-binding compound 0.1 μM
[10] = read-out: Percent Binding Inhibition, FLNA-binding compound 1 μM
[11] = 0.1 μM compound relative to DAMGO
[12] = 1 μM compound + BFNA relative to DAMGO + BFNA
[13] = 1 μM compound relative to DAMGO
[14] = FLNA-binding compound 0.01 μM, read-out: Percent Binding Inhibition
[15] = FLNA-binding compound 0.1 μM, read-out: Percent Binding Inhibition
[16] = FLNA-binding compound 1 μM, read-out: Percent Binding Inhibition
[17] = Series C-1, 0.1 μM compound, relative to DAMGO
[18] = Series C-1, 0.1 μM compound, [35S]GTPγS binding to Gαo, striatal membranes
[19] = Series C-1, 1 μM compound + 1 μM β-FNA
[20] = Series C-1, 1 μM compound + β-FNA, relative to DAMGO + BFNA
[21] = Series C-1, 1 μM compound, relative to DAMGO
[22] = Series C-1, 1 μM compound, [35S]GTPγS binding to Gαo, striatal membranes

SMILES	inhibition at 0.01 µM [1, 8] [%]	inhibition at 0.1 µM [1, 9] [%]	inhibition at 1 µM [1, 10] [%]	MOR agonist activity ([35S]GTPγS binding), FLNA-Binding Compound as Agonist 0.1 μM (mu opiate receptor (MOR); 0.1 μM compound) [%]	% DAMGO (0.1 μM) (mu opiate receptor (MOR); [11]) [%]	MOR agonist activity ([35S]GTPγS binding), FLNA-Binding Compound as Agonist 1 μM (mu opiate receptor (MOR); 1 μM compound) [%]	MOR agonist activity ([35S]GTPγS binding), FLNA-Binding Compound as Agonist 1 μM + BFNA (mu opiate receptor (MOR)) [%]	% DAMGO + BFNA (mu opiate receptor (MOR); [12]) [%]	% DAMGO (1 μM) (mu opiate receptor (MOR); [13]) [%]	inhibition at 0.01 µM [1, 14] [%]	inhibition at 0.1 µM [1, 15] [%]	inhibition at 1 µM [1, 16] [%]	other results
COc1ccc(S(=O)(=O)N2CCOC23CCN(CC2CC2)CC3)cc1 [Compound C0090M]	42.5	52.5	55.8										% DAMGO (0.1 μM) (mu opiate receptor (MOR); [2]): 137.7%; MOR agonist activity, percent [35S]GTPγS binding at the stated compound concentration (mu opiate receptor (MOR); [3]): 237.0%; MOR agonist activity, percent [35S]GTPγS binding at the stated compound concentration (mu opiate receptor (MOR); [4]): 41.0%; % DAMGO + BFNA (mu opiate receptor (MOR); [5]): 118.8%; % DAMGO (1 μM) (mu opiate receptor (MOR); [6]): 155.2%; MOR agonist activity, percent [35S]GTPγS binding at the stated compound concentration (mu opiate receptor (MOR); [7]): 341.0%
CC1CCC(C(C)C)C(OCC(O)CN2CC(C)CC(C)C2)C1 (stereo not drawn) [Compound A0008]				163.8	109.6	235.0	133.9	505.3	102.1	34.5	33.5	39.8	
COc1cccc(OC)c1C(=O)CC1c2c(cc3c(c2OC)OCO3)CC[N+]1(C)C (stereo not drawn) [Compound B0023]	28.5	37.8	46.4										% DAMGO (0.1 μM) (mu opiate receptor (MOR); Series B, 0.1 μM compound, relative to DAMGO): 99.4%; MOR agonist activity, percent [35S]GTPγS binding at the stated compound concentration (mu opiate receptor (MOR); Series B, 0.1 μM compound, [35S]GTPγS binding to Gαo, striatal membranes): 166.1%; MOR agonist activity, percent [35S]GTPγS binding at the stated compound concentration (mu opiate receptor (MOR); Series B, 1 μM compound + 1 μM β-FNA): 28.4%; % DAMGO + BFNA (mu opiate receptor (MOR); Series B, 1 μM compound + β-FNA, relative to DAMGO + BFNA): 81.8%; % DAMGO (1 μM) (mu opiate receptor (MOR); Series B, 1 μM compound, relative to DAMGO): 100.1%; MOR agonist activity, percent [35S]GTPγS binding at the stated compound concentration (mu opiate receptor (MOR); Series B, 1 μM compound, [35S]GTPγS binding to Gαo, striatal membranes): 245.3%
CC1CCC(C(C)C)C(OCC(O)CN2CCSCC2)C1 (stereo not drawn) [Compound A0003]	21.3	31.6	37.4	176.8	118.3	276.0	17.1	64.5	119.9				
CCN1CCC2(CC1)OCCN2S(=O)(=O)c1ccc(C(C)=O)cc1 [Compound C0094M]										43	52.8	57.5	% DAMGO (0.1 μM) (mu opiate receptor (MOR); [2]): 100.2%; MOR agonist activity, percent [35S]GTPγS binding at the stated compound concentration (mu opiate receptor (MOR); [3]): 172.5%; MOR agonist activity, percent [35S]GTPγS binding at the stated compound concentration (mu opiate receptor (MOR); [4]): 115.3%; % DAMGO + BFNA (mu opiate receptor (MOR); [5]): 334.2%; % DAMGO (1 μM) (mu opiate receptor (MOR); [6]): 119.9%; MOR agonist activity, percent [35S]GTPγS binding at the stated compound concentration (mu opiate receptor (MOR); [7]): 263.5%
COc1ccc(C(=O)N2CCC3(CC2)OCCN3S(=O)(=O)c2ccc(OC)cc2)cc1 [Compound C0018]										42.3	45.9	53.4	% DAMGO (0.1 μM) (mu opiate receptor (MOR); [17]): 110.7%; Concentration of FLNA-Binding Compound as Agonist 0.1 μM (mu opiate receptor (MOR); [18]): 195.5%; Concentration of FLNA-Binding Compound as Agonist 1 μM + BFNA (mu opiate receptor (MOR); [19]): 106.5%; % DAMGO + BFNA (mu opiate receptor (MOR); [20]): 162.1%; % DAMGO (1 μM) (mu opiate receptor (MOR); [21]): 95.5%; Concentration of FLNA-Binding Compound as Agonist 1 μM (mu opiate receptor (MOR); [22]): 247.7%
CC1CCC(C(C)C)C(OCC(O)CN2CCCCC2)C1 (stereo not drawn) [Compound A0005]	34.2	38.2	43.8	179.7	105.0	239.2	23.5	45.1	89.6				
N#Cc1ccccc1S(=O)(=O)N1CCC2(CC1)OCCN2S(=O)(=O)c1ccccc1C#N [Compound C0004]	37.6	42.3	44.7										% DAMGO (0.1 μM) (mu opiate receptor (MOR); [17]): 72.1%; Concentration of FLNA-Binding Compound as Agonist 0.1 μM (mu opiate receptor (MOR); [18]): 122.0%; Concentration of FLNA-Binding Compound as Agonist 1 μM + BFNA (mu opiate receptor (MOR); [19]): 65.8%; % DAMGO + BFNA (mu opiate receptor (MOR); [20]): 99.7%; % DAMGO (1 μM) (mu opiate receptor (MOR); [21]): 85.4%; Concentration of FLNA-Binding Compound as Agonist 1 μM (mu opiate receptor (MOR); [22]): 228.4%
